Test results from PubChem BioAssay (NCI).
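A five-concentration, 48-hour dose response in 96-well plates underlies each endpoint, interpolated linearly between surrounding concentrations. GI50 = concentration required for 50% inhibition of growth. TGI marks complete inhibition of growth.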

Experiments:
Test in all cases: NCI anticancer screen, dose series, 48 h
NCI-H460 lung = system: NCI-H460 lung
NCI-H226 lung = system: NCI-H226 lung
SNB-75 CNS = system: SNB-75 CNS
OVCAR-3 ovarian = system: OVCAR-3 ovarian
SK-MEL-2 melanoma = system: SK-MEL-2 melanoma
HT29 colon = system: HT29 colon
HOP-92 NSCLC = system: HOP-92 NSCLC
SN12C renal = system: SN12C renal
MDA-MB-435 = system: MDA-MB-435
MDA-MB-231 breast = system: MDA-MB-231 breast

SMILES	TGI (NCI-H460 lung)	TGI (NCI-H226 lung)	TGI (SNB-75 CNS)	TGI (OVCAR-3 ovarian)	TGI (SK-MEL-2 melanoma)	TGI (HT29 colon)	TGI (HOP-92 NSCLC)	TGI (SN12C renal)	GI50 (MDA-MB-435)	TGI (MDA-MB-435)	GI50 (NCI-H460 lung)	GI50 (MDA-MB-231 breast)	TGI (MDA-MB-231 breast)	GI50 (SNB-75 CNS)	GI50 (OVCAR-3 ovarian)	GI50 (SN12C renal)	GI50 (SK-MEL-2 melanoma)	GI50 (HOP-92 NSCLC)	GI50 (NCI-H226 lung)	GI50 (HT29 colon)
OCCC1(O)CCC(O)CC1 (configuration not stated)	> 100 µM	> 100 µM	> 100 µM	> 100 µM	> 100 µM	> 100 µM	> 100 µM													
COC(=O)CC(=O)C[P+](c1ccccc1)(c1ccccc1)c1ccccc1	> 218 µM	> 218 µM		> 218 µM	> 218 µM	> 218 µM	> 218 µM	> 218 µM												
COC(=O)C1=C(C(=O)OC)C2C=CC1C1C(Cl)=C(Cl)C21 (configuration not stated)	> 100 µM		> 100 µM	> 100 µM	> 100 µM	> 100 µM	> 100 µM	> 100 µM												
CCN(CC)c1c(C(=O)/C=C/c2ccccc2)c(-c2ccccc2)nn(C)c1=O	> 100 µM	> 100 µM				> 100 µM	> 100 µM	> 100 µM												
COc1ccc(OC)c(NC(=O)C(=O)C(C(C)=O)c2nc3ccc(Cl)cc3[nH]c2=O)c1 (configuration not stated)	> 50 µM	> 50 µM	> 50 µM	> 50 µM	> 50 µM	> 50 µM	> 50 µM	> 50 µM												
CCCCCCCCCCCCCC(=O)OC1CC(=O)OC1CO (configuration not stated)	> 100 µM		> 100 µM	> 100 µM	> 100 µM	> 100 µM	43.1 µM	> 100 µM												
COC(=O)C(=O)C(C(=O)C=C(C)C)C(=O)C(=O)Nc1cc(C(F)(F)F)ccc1Cl (configuration not stated)	> 100 µM	> 100 µM	> 100 µM	> 100 µM	> 100 µM	> 100 µM	> 100 µM	> 100 µM												
COc1cc(C2c3cc4c(cc3C(NCC(O)CO)C3COC(=O)[C@H]23)OCO4)cc(OC)c1OC (some centres not stated)		0.655 µM	> 100 µM			> 100 µM		> 100 µM												
COc1ccc2c(c1)c(-c1nc(-c3cn(C)c4ncccc34)cs1)cn2CCCN1CCCCC1	3.7 µM		2.72 µM	3.02 µM	4.46 µM		3.24 µM	3.17 µM	1.63 µM	3.03 µM	1.95 µM	1.78 µM	3.37 µM	1.34 µM	1.59 µM	1.71 µM	2.07 µM	1.67 µM		
O=C1C=CC(=Nc2ccc3c(c2)C(Br)c2ccccc2-3)O1 (configuration not stated)	> 100 µM		> 100 µM	> 100 µM				49.9 µM												
COc1ccc(/C(=C2\O[C@@H]([C@H]3COC(C)(C)O3)[C@H]3OC(C)(C)O[C@@H]23)c2cc(OC)c(OC)c(OC)c2)cc1O	> 100 µM	> 100 µM	6.31 µM	5.34 µM	> 100 µM		31.8 µM	> 100 µM			4.31 µM	4.58 µM	30.7 µM	1.8 µM	2.38 µM	5.62 µM	57.9 µM	5.45 µM	25.9 µM	
Cc1ccc(S(=O)(=O)C(CC(=O)N2CCCC2)C(=O)c2ccccc2)cc1 (configuration not stated)	> 100 µM		> 100 µM	> 100 µM		> 100 µM	> 100 µM	> 100 µM												
CC1=C(C(=O)Nc2ccc([N+](=O)[O-])cc2)C(c2ccc(N(C)C)cc2)C(C(=O)Nc2ccc([N+](=O)[O-])cc2)=C(C)N1	45.3 µM	42.3 µM	59.6 µM	34.5 µM	29.8 µM	46.9 µM	47.7 µM													
CC[CH2][Pb]([CH2]CC)([CH2]CC)[O]C(=O)C(F)(F)F	0.398 µM		0.377 µM	0.239 µM	0.462 µM	0.47 µM	0.223 µM	0.535 µM	0.0379 µM	0.106 µM	0.113 µM	0.142 µM	0.44 µM	0.0679 µM	0.0885 µM	0.195 µM	0.214 µM	0.0291 µM		0.186 µM
COC(=O)C[C@H]1CCC2(OCCO2)[C@]1(C)C(=O)OC	> 100 µM		> 100 µM	> 100 µM	> 100 µM	> 100 µM	> 100 µM	> 100 µM												
N#CC1(Cc2ccc(N)cc2)c2ccccc2C=CN1C(=O)c1ccccc1 (configuration not stated)		> 100 µM	> 100 µM	> 100 µM	> 100 µM	> 100 µM	> 100 µM	> 100 µM												
COc1ccc2cc1Oc1ccc(cc1)CC1c3cc(c(OC)cc3CCN1C)Oc1c3c(cc4c1C(C2)N(C)CC4)OCO3 (configuration not stated)	28.4 µM	7.45 µM	15.3 µM	30 µM	15.8 µM	8.25 µM		23.7 µM												
CCCCCCCCCCCC(=O)CC(=O)c1c(O)cccc1O	35.7 µM	32.1 µM	36.5 µM	34.4 µM	31 µM	33.7 µM	39 µM	33.6 µM												
N#CSCC1CC(O)(c2ccccc2)C(c2ccccc2)C(c2ccc(Cl)cc2)O1 (configuration not stated)		4.62 µM	4.28 µM	2.29 µM	4.37 µM	2.45 µM		2.91 µM	1.4 µM	2.88 µM		1.8 µM	4.79 µM	1.55 µM	0.782 µM	1.41 µM	2.33 µM		2.27 µM	1.02 µM
CC(C)CC(=O)[O-].CC(C)CC(=O)[O-].N.N.N.N.[Co+3].[O-][Cl+3]([O-])([O-])[O-]	> 100 µM		> 100 µM	> 100 µM	> 100 µM	> 100 µM	> 100 µM	> 100 µM			> 100 µM			> 100 µM	> 100 µM	> 100 µM	> 100 µM	> 100 µM		> 100 µM
CCCCCCCCCC[C@@H](O)[C@@H]1CC[C@H]([C@H]2CC[C@@H]([C@@H](O)CCCCCCCCCC[C@H]3CC(CC(C)=O)C(=O)O3)O2)O1 (some centres not stated)	> 100 µM	20.2 µM	26.9 µM	17.8 µM	30.7 µM	34.6 µM	33.4 µM	49.1 µM												
